Structures are written as SMILES.

As usually defined, the inhibition is the share of the control response that was lost under treatment.

Chain of DDR2 (Q16832 563-849): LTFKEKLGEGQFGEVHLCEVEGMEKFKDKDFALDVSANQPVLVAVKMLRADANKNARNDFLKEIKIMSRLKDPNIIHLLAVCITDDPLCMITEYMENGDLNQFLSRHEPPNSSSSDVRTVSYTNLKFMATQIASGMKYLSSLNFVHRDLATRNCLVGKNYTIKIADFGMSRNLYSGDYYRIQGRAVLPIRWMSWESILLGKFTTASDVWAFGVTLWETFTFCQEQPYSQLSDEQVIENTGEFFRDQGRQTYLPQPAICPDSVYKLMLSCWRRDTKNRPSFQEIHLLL

The target of one test is DDR2 (Homo sapiens (Human), UniProt Q16832). Briefly: DDR2 enzyme activity test (ELISA). The settings on record: Table 3, chiral synthesis vs resolution; read-out: Molecular activity comparison (inhibitory activity against DDR2 enzyme). The test is classed as biochemical. On the procedure:
The optical rotation and the inhibitory activity against DDR2 enzyme of the compounds S11-A and S11-B obtained by the resolution in Example 12, and the chirally synthesized compounds S11-A′ and S11-B′ in Example 13 were tested (referred to the operation in Effect example 1), and the results are shown in Table 3 below:
Detection method: Enzyme-linked immunosorbent assay (ELISA)
Test receptor tyrosine kinase: DDR2
The kinase used in the experiment was obtained by our laboratory using the insect baculovirus expression system to express and purify the recombinant protein containing the protein kinase region; polyglutamic acid-tyrosine peptide segment [Poly(Glu, Tyr) 4:1] and sodium vanadate were purchased from Sigma; the anti-phosphorylated monoclonal antibody PY99 was purchased from Santa Cruz; horseradish peroxidase labeled goat anti-murine secondary antibody was purchased from Calbiochem; ATP and OPD were purchased from Sangon Biotech (Shanghai) Co., Ltd.; the remaining reagents were purchased from Sinopharm Chemical Reagent Co., Ltd. The reaction ELISA plate (#2592) was purchased from Corning. The full-wavelength microplate reader for experiment reading was a product of Molecular Device, model: SpectraMax 190; the experimental water was distilled water produced by Sinopharm Group.
The compound was centrifuged at 12,000 g for 5 min, and DMSO was added to prepare a 10^-2M stock solution, which was vortexed evenly, then sonicated for 10 min and stored at −40° C. for later use. During the test, the compound was diluted with DMSO from the stock solution to 100 times the test concentration (the DMSO concentration in the system was 1%).
1) Enzyme reaction substrate Poly(Glu, Tyr) 4:1 was diluted to 20 μg/mL with potassium-free PBS (10 mM sodium phosphate buffer, 150 mM NaCl, pH 7.2-7.4), and the microtiter plate was coated with 125 μL/well and placed at 37° C. for 12-16 hours of reaction. The liquid in the well was discard. The plate was washed three times with T-PBS (potassium-free PBS containing 0.1% Tween-20, 200 μL/well), 5 minutes each time. The ELISA plate was dried in an oven at 37° C. for 1 to 2 hours.
2) Reaction buffer (50 mM HEPES pH 7.4, 50 mM MgCl2, 0.5 mM MnCl2, 0.2 mM Na3VO4, 1 mM DTT) diluted ATP solution (49 μL) was added to each well, 1 μL of the compound to be tested was added to each well, and then 50 μL of DDR2 kinase domain recombinant protein diluted in the reaction buffer was added to start the reaction. Two control wells without ATP were set in each experiment. The plate placed on a shaker (100 rpm) at 37° C. for 1 hour of reaction. The liquid in the well was discarded and the plate was washed three times with T-PBS.
3) Antibody PY99 dilution solution (the antibody was diluted 1:500 with T-PBS containing BSA 5 mg/mL) was added at 100 μL/well, and shaken on a shaker at 37° C. for 0.5 hour of reaction. The liquid in the well was discarded and the plate was washed three times with T-PBS.
4) Horseradish peroxidase labeled goat anti-murine secondary antibody dilution solution (the antibody is diluted 1:2000 with T-PBS containing BSA 5 mg/ml) was added at 100 μL/well, and shaken on a shaker at 37° C. for 0.5 hour of reaction. The liquid in the well was discarded and the plate was washed three times with T-PBS.
5) 2 mg/ml of OPD color developing solution [diluted with 0.1 M citric acid-sodium citrate buffer (pH=5.4) containing 0.03% H2O2] was added at 100 μL/well and reacted for 1 to 10 minutes at 25° C. in the dark.
6) 2M H2SO4 was added at 50 μL/well to stop the reaction, and a tunable wavelength microplate reader VERSAmax was used for reading at a wavelength of 490 nm.
The IC50 value was obtained by four-parameter regression using the software that came with the microplate reader.
(In general: ELISA stands for enzyme-linked immunosorbent assay.)
On to `Cc1ccc([C@@H](C)NC(=O)c2cccc(C(F)(F)F)c2)cc1-c1ccc2nc(Nc3cnn(C4CC4)c3)ncc2c1` [Compound S11-B], for which the IC50 was found to be 14.4 ± 2.1 nM.

In the case of `Cc1ccc([C@H](C)NC(=O)c2cccc(C(F)(F)F)c2)cc1-c1ccc2nc(Nc3cnn(C4CC4)c3)ncc2c1` [Compound S11-A], the IC50 was 5 ± 0.1 nM.

Staying with this test, now noted: read-out: DDR2 IC50.
In the case of `Cn1cc(Nc2ncc3cc(-c4cc(C(=O)Nc5cccc(C(F)(F)F)c5)ccc4C4CC4)ccc3n2)cn1` [Compound S14, 4-cyclopropyl-3-(2-((1-methyl-1H-pyrazol-4-yl)amino)quinazolin-6-yl)-N-(3-(trifluoromethyl)phenyl)benzamide], the IC50 came to 4.3 ± 0.7 nM.

Consider `Cc1ccc(C(C)NC(=O)c2cccc(C(C)(C)C#N)c2)cc1-c1ccc2nc(Nc3cnn(C4CC4)c3)ncc2c1` (centres unmarked) [Compound S20, 3-(2-cyanopropane-2-yl)-N-(1-(3-(2-((1-cyclopropyl-1H-pyrazol-4-yl)amino)quinazolin-6-yl)-4-methylphenyl)ethyl)benzamide], for which the IC50 turned out to be 5.6 ± 0.3 nM.

With `CC(C(=O)Nc1ccc(C2CC2)c(-c2ccc3nc(Nc4cnn(C5CC5)c4)ncc3c2)c1)c1cccc(C(F)(F)F)c1` (centres unmarked) [Compound S17, N-(4-cyclopropyl-3-(2-((1-cyclopropyl-1H-pyrazol-4-yl)amino)quinazolin-6-yl)phenyl)-2-(3-(trifluoromethyl)phenyl)propionamide], the IC50 worked out at 1.7 ± 0.3 nM.

`Cc1ccc(C(C)NC(=O)c2cccc(C(F)(F)F)c2)cc1-c1ccc2cnc(Nc3cnn(C)c3)nc2c1` (centres unmarked) [Compound S4, N-(1-(4-methyl-3-(2-((1-methyl-1H-pyrazol-4-yl)amino)quinazolin-7-yl)phenyl)ethyl)-3-(Trifluoromethyl)benzamide]: the IC50 is 4.1 ± 0.1 nM.

`CC(C)c1ccc(C(=O)Nc2cccc(C(F)(F)F)c2)cc1-c1ccc2nc(Nc3cnn(C)c3)ncc2c1` [Compound S13, 4-isopropyl-3-(2-((1-methyl-1H-pyrazol-4-yl)amino)quinazolin-6-yl)-N-(3-(trifluoromethyl)phenyl)benzamide]: the IC50 amounted to 5.4 ± 0.4 nM.

On to `Cc1ccc(NC(=O)C(C)c2cccc(C(F)(F)F)c2)cc1-c1ccc2nc(Nc3cnn(C)c3)ncc2c1` (centres unmarked) [Compound S8, N-(4-methyl-3-(2-((1-methyl-1H-pyrazol-4-yl)amino)quinazolin-6-yl)phenyl)-2-(3-(trifluoromethyl)phenyl)propionamide], for which the IC50 was 2.2 ± 0.2 nM.

Consider `Cc1ccc(NC(=O)Nc2cccc(C(F)(F)F)c2)cc1-c1ccc2nc(Nc3cnn(C)c3)ncc2c1` [Compound S1, 1-(4-methyl-3-(2-((1-methyl-1H-pyrazol-4-yl)amino)quinazolin-6-yl)phenyl)-3-(3-(trifluoromethyl)phenyl)urea], for which the IC50 turned out to be 6.6 ± 0.4 nM.

With `Cc1ccc(C(=O)NC(C)c2cccc(C(F)(F)F)c2)cc1-c1ccc2nc(Nc3cnn(C)c3)ncc2c1` (centres unmarked) [Compound S5, 4-Methyl-3-(2-((1-methyl-1H-pyrazol-4-yl)amino)quinazolin-6-yl)-N-(1-(3-(trifluoromethyl)phenyl)ethyl)benzamide], the IC50 amounted to 2.9 ± 0.8 nM.

Turning to `Cc1ccc(C(C)C(=O)Nc2cccc(C(F)(F)F)c2)cc1-c1ccc2nc(Nc3cnn(C4CC4)c3)ncc2c1` (centres unmarked) [Compound S9, 2-(3-(2-((1-cyclopropyl-1H-pyrazol-4-yl)amino)quinazolin-6-yl)-4-methylphenyl)-N-(3-(trifluoromethyl)phenyl)propionamide], the IC50 turned out to be 2.7 ± 0.1 nM.

Regarding `Cc1ccc(C(=O)NCc2cccc(C(F)(F)F)c2)cc1-c1ccc2nc(Nc3cnn(C)c3)ncc2c1` [Compound S7, 4-methyl-3-(2-((1-methyl-1H-pyrazol-4-yl)amino)quinazolin-6-yl)-N-(3-(trifluoromethyl)benzyl)benzamide], the IC50 worked out at 1.3 ± 0.2 nM.

For `CCC(NC(=O)c1cccc(C(F)(F)F)c1)c1ccc(C)c(-c2ccc3nc(Nc4cnn(C)c4)ncc3c2)c1` (centres unmarked) [Compound S6, N-(1-(4-methyl-3-(2-((1-methyl-1H-pyrazol-4-yl)amino)quinazolin-6-yl)phenyl)propyl)-3-(trifluoromethyl)benzamide], the IC50 came out at 5 ± 0.5 nM.

Regarding `Cc1ccc(C(C)NC(=O)Nc2cccc(C(F)(F)F)c2)cc1-c1ccc2nc(Nc3cnn(C)c3)ncc2c1` (centres unmarked) [Compound S27, 1-(1-(4-methyl-3-(2-((1-methyl-1H-pyrazol-4-yl)amino)quinazolin-6-yl)phenyl)ethyl)-3-(3-(trifluoromethyl)phenyl)urea], the IC50 worked out at 8.7 ± 1.1 nM.

Turning to `Cc1ccc(NC(=O)Nc2cc(C(C)(C)C)nn2-c2ccccc2)cc1-c1ccc2nc(Nc3cnn(C)c3)ncc2c1` [Compound S2, 1-(3-(tert-butyl)-1-phenyl-1H-pyrazol-5-yl)-3-(4-methyl-3-(2-((1-methyl-1H-pyrazol-4-yl)amino)quinazolin-6-yl)phenyl)urea], the IC50 turned out to be 9.7 ± 0.6 nM.

For the compound `C[C@@H](NC(=O)c1ccc(C2CC2)c(-c2ccc3cnc(Nc4cnn(C5CC5)c4)nc3c2)c1)c1cccc(C(F)(F)F)c1` [Compound S37], the IC50 came to 13.5 ± 7.2 nM.

The test is the same for the next values; noted with them: read-out: DDR2 Inhibition rate at 0.1 μM.
For the compound `O=C(NC1CCc2c1cccc2C(F)(F)F)c1ccc(C2CC2)c(-c2ccc3nc(Nc4cnn(C5CC5)c4)ncc3c2)c1` (centres unmarked) [Compound S46], the inhibition at 0.1 µM is 47.7%.

Take `CCN1CCN(Cc2cc(C(C)NC(=O)c3ccc(C4CC4)c(-c4ccc5nc(Nc6cnn(C7CC7)c6)ncc5c4)c3)cc(C(F)(F)F)c2)CC1` (centres unmarked) [Compound S43]: the inhibition at 0.1 µM amounted to 57.6%.

In the case of `CC(NC(=O)c1ccc(C2CC2)c(-c2ccc3nc(Nc4cnn(C5CC5)c4)ncc3c2)c1)c1cc(C(F)(F)F)ccn1` (centres unmarked) [Compound S45], the inhibition at 0.1 µM was 68.4%.

Take `Cc1nc(C(C)NC(=O)c2ccc(C3CC3)c(-c3ccc4nc(Nc5cnn(C6CC6)c5)ncc4c3)c2)cs1` (centres unmarked) [Compound S44]: the inhibition at 0.1 µM was found to be 72.9%.

In a further test the test system is pulmonary fibrosis induced by bleomycin in mice. The test is described as follows: mRNA levels of fibrosis-related markers in lung tissue (qRT-PCR). The class given is in vivo, mouse. The settings on record: 30 mg/kg. On the procedure:
About 30 mg of cryopreserved lung tissue was weighed and homogenized and lysed by adding 200 μL of Trizol (Takara, 9109 #). The fluid after the lysis in the well was collected by the RNA sterilization-grade pipette tip and transferred to the corresponding sterile EP tube. […] of chloroform was added, shaken vigorously for 30 sec, and centrifuged for 15 minutes in a centrifuge at 4° C. at 12000 rpm. The upper aqueous layer was transferred to a new EP tube, an equal volume of isopropanol was used to precipitate the RNA in the aqueous phase, and the tube was allowed to stand at −20° C. for more than 1 hr. And then the tube was centrifuged for 15 min at 4° C. at 12000 rpm, and the supernatant was discarded. 75% ethanol was added to wash the RNA pellet, and then the tube was centrifuged for 15 min at 4° C. at 12000 rpm, and the supernatant was discarded. The tube was placed at room temperature for 10-20 min to dry the RNA pellet. 25-200 μL of RNase-free water was added for dissolution and stored at −80° C.
PrimeScript™ RT Master Mix (Takara, RR036A) was selected for mRNA reverse transcription. Please refer to the instructions for the system. In short, 1 μg of mRNA was added to a 20 μL system, mixed and then kept at a constant temperature in a 37° C. water bath for 15 minutes, and then the enzyme was inactivated at 85° C. for 5 seconds. After centrifugation, double distilled water was used to dilute 10 times.
Q-PCR technology used 2×SYBR Green qPCR Master Mix (B21202, Biomake), and the reaction system could be prepared according to the instruction (10 μL of 2×SYBGreen, 8.8 μL of cDNA template, 1.2 μL of 5 μM primer Mix). The reaction conditions are: pre-denaturation at 95° C. for 5 min, denaturation at 95° C. for 30 sec, annealing at 60° C. for 30 sec, and extension at 72° C. for 30 sec, the number of reaction cycles is 40 cycles.
The experiment used qRT-PCR technology to determine the mRNA levels of fibrosis-related markers in lung tissue.
The experimental method was the same as that for the evaluation of the mRNA levels of inflammatory cytokines.
For `Cc1ccc([C@H](C)NC(=O)c2cccc(C(F)(F)F)c2)cc1-c1ccc2nc(Nc3cnn(C4CC4)c3)ncc2c1` [Compound S11-A], the “reduction of expression (mRNA) of Collagen1-α1” value was “about 50%”, the “reduction of expression (mRNA) of TGF-β1” value is listed as “about 50%” and the “reduction of expression (mRNA) of α-SMA” value is on record as “about 50%”.

Values taken from US11655239B2 (SHANGHAI INSTITUTE OF MATERIAL MEDICA, CHINESE ACADEMY OF …, priority 2019, dated 2023).
